Reference: ChEMBL document CHEMBL1649191, “Genetic organization of transposase regions surrounding blaKPC carbapenemase genes on plasmids from Klebsiella strains isolated in a New York City hospital” (2009)
In brackets after ≈: the same amount, converted by molar mass.

Legend:
Assay type in all cases: functional
[1] = system: Klebsiella pneumoniae; assay: Antimicrobial activity against blaKPC-positive Klebsiella pneumoniae S1 by broth microdilution method
[2] = system: Klebsiella pneumoniae; assay: Antimicrobial activity against blaKPC-positive Klebsiella pneumoniae S2 by broth microdilution method
[3] = system: Klebsiella pneumoniae; assay: Antimicrobial activity against blaKPC-positive Klebsiella pneumoniae S3 by broth microdilution method
[4] = system: Klebsiella pneumoniae; assay: Antimicrobial activity against blaKPC-positive Klebsiella pneumoniae S4 by broth microdilution method
[5] = system: Klebsiella pneumoniae; assay: Antimicrobial activity against blaKPC-positive Klebsiella pneumoniae S5 by broth microdilution method
[6] = system: Klebsiella pneumoniae; assay: Antimicrobial activity against blaKPC-positive Klebsiella pneumoniae S6 by broth microdilution method
[7] = system: Klebsiella pneumoniae; assay: Antimicrobial activity against blaKPC-positive Klebsiella pneumoniae S7 by broth microdilution method
[8] = system: Klebsiella pneumoniae; assay: Antimicrobial activity against blaKPC-positive Klebsiella pneumoniae S8 by broth microdilution method
[9] = system: Klebsiella pneumoniae; assay: Antimicrobial activity against blaKPC-positive Klebsiella pneumoniae S9 by broth microdilution method
[10] = system: Klebsiella pneumoniae; assay: Antimicrobial activity against blaKPC-positive Klebsiella pneumoniae S10 by broth microdilution method
[11] = system: Klebsiella pneumoniae; assay: Antimicrobial activity against blaKPC-positive Klebsiella pneumoniae S11 by broth microdilution method
[12] = system: Klebsiella pneumoniae; assay: Antimicrobial activity against blaKPC-positive Klebsiella pneumoniae S12 by broth microdilution method
[13] = system: Klebsiella oxytoca; assay: Antimicrobial activity against blaKPC-positive Klebsiella oxytoca S13 by broth microdilution method
[14] = system: Klebsiella pneumoniae; assay: Antimicrobial activity against blaKPC-positive Klebsiella pneumoniae S14 by broth microdilution method
[15] = system: Klebsiella pneumoniae; assay: Antimicrobial activity against blaKPC-positive Klebsiella pneumoniae S15 by broth microdilution method

Compound | MIC [1] [µg/mL] | MIC [2] [µg/mL] | MIC [3] [µg/mL] | MIC [4] [µg/mL] | MIC [5] [µg/mL] | MIC [6] [µg/mL] | MIC [7] [µg/mL] | MIC [8] [µg/mL] | MIC [9] [µg/mL] | MIC [10] [µg/mL] | MIC [11] [µg/mL] | MIC [12] [µg/mL] | MIC [13] [µg/mL] | MIC [14] [µg/mL] | MIC [15] [µg/mL]
NCC[C@H](O)C(=O)N[C@@H]1C[C@H](N)[C@@H](O[C@H]2O[C@H](CN)[C@@H](O)[C@H](O)[C@H]2O)[C@H](O)[C@H]1O[C@H]1O[C@H](CO)[C@@H](O)[C@H](N)[C@H]1O [AMIKACIN] | 16 (≈ 27.3 µM) | 32 (≈ 54.6 µM) | 32 (≈ 54.6 µM) | 1 (≈ 1.71 µM) | 64 (≈ 109 µM) | 32 (≈ 54.6 µM) | 1 (≈ 1.71 µM) | > 64 | 16 (≈ 27.3 µM) | > 64 | 2 (≈ 3.42 µM) | 16 (≈ 27.3 µM) | 4 (≈ 6.83 µM) | 32 (≈ 54.6 µM) | 32 (≈ 54.6 µM)
CC(C)(O/N=C(\C(=O)N[C@@H]1C(=O)N2C(C(=O)[O-])=C(C[n+]3ccccc3)CS[C@H]12)c1csc(N)n1)C(=O)O [CEFTAZIDIME] | > 64 | > 64 | 64 (≈ 117 µM) | 8 (≈ 14.6 µM) | > 64 | > 64 | 32 (≈ 58.5 µM) | > 64 | > 64 | > 64 | 16 (≈ 29.3 µM) | > 64 | > 64 | > 64 | > 64
C[C@@H](O)[C@H]1C(=O)N2C(C(=O)O)=C(SCCNC=N)C[C@H]12 [IMIPENEM ANHYDROUS] | 32 (≈ 107 µM) | 32 (≈ 107 µM) | 32 (≈ 107 µM) | 8 (≈ 26.7 µM) | 64 (≈ 214 µM) | 32 (≈ 107 µM) | 32 (≈ 107 µM) | 64 (≈ 214 µM) | > 64 | 64 (≈ 214 µM) | 32 (≈ 107 µM) | 32 (≈ 107 µM) | 32 (≈ 107 µM) | > 64 | 64 (≈ 214 µM)
POLYMYXIN B | 2 | 8 | 8 | 8 | 4 | 16 | 16 | 8 | 4 | 4 | 16 | 2 | 4 | 1 | 4
CN(C)c1cc(NC(=O)CNC(C)(C)C)c(O)c2c1C[C@H]1C[C@H]3[C@H](N(C)C)C(O)=C(C(N)=O)C(=O)[C@@]3(O)C(O)=C1C2=O [TIGECYCLINE] | 1 (≈ 1.71 µM) | 1 (≈ 1.71 µM) | 1 (≈ 1.71 µM) | 0.5 (≈ 0.854 µM) | 1 (≈ 1.71 µM) | 4 (≈ 6.83 µM) | 0.5 (≈ 0.854 µM) | 2 (≈ 3.41 µM) | 2 (≈ 3.41 µM) | 1 (≈ 1.71 µM) | 0.25 (≈ 0.427 µM) | 0.25 (≈ 0.427 µM) | 0.25 (≈ 0.427 µM) | 0.25 (≈ 0.427 µM) | 1 (≈ 1.71 µM)
C[C@H]1[C@H](NC(=O)/C(=N\OC(C)(C)C(=O)O)c2csc(N)n2)C(=O)N1S(=O)(=O)O [AZTREONAM] | > 64 | > 64 | > 64 | > 64 | > 64 | > 64 | > 64 | > 64 | > 64 | > 64 | > 64 | > 64 | > 64 | > 64 | > 64
C[C@@H](O)[C@H]1C(=O)N2C(C(=O)O)=C(S[C@@H]3CN[C@H](C(=O)N(C)C)C3)[C@H](C)[C@H]12 [MEROPENEM] | > 64 | 64 (≈ 167 µM) | 64 (≈ 167 µM) |  | 64 (≈ 167 µM) | 64 (≈ 167 µM) | 32 (≈ 83.4 µM) | 64 (≈ 167 µM) | > 64 | 64 (≈ 167 µM) | 32 (≈ 83.4 µM) | 32 (≈ 83.4 µM) | 32 (≈ 83.4 µM) | 64 (≈ 167 µM) | 64 (≈ 167 µM)
O=C(O)c1cn(C2CC2)c2cc(N3CCNCC3)c(F)cc2c1=O [CIPROFLOXACIN] | > 64 | > 64 | > 64 | 0.06 (≈ 0.181 µM) | > 64 | > 64 | 32 (≈ 96.6 µM) | > 64 | > 64 | > 64 | 1 (≈ 3.02 µM) | < 0.06 | 0.06 (≈ 0.181 µM) | 64 (≈ 193 µM) | > 64
GENTAMICIN |  | 2 | 2 |  | 1 | 1 | 8 | 8 | 1 | 8 |  | 16 | 8 | 32 | 2
CO/N=C(\C(=O)N[C@@H]1C(=O)N2C(C(=O)[O-])=C(C[N+]3(C)CCCC3)CS[C@H]12)c1csc(N)n1 | 32 (≈ 66.6 µM) | > 64 | > 64 | 64 (≈ 133 µM) | > 64 | > 64 | > 64 | 64 (≈ 133 µM) | > 64 | > 64 | > 64 | > 64 | > 64 | > 64 | > 64
